Results as given in US11026945B2, “Protein kinase RNA-like endoplasmic reticulum kinase (PERK) inhibitors for prevention and/or treatment of lung injury and/or inflammation” (THE TRUSTEES OF THE UNIVERSITY OF PENNSYLVANIA, priority 2016, dated 2021).

System: tight junction proteins (CLDN4, CLDN18) bound to ZO-1 in AEC-I monolayers
Assay: Co-immunoprecipitation of tight junction proteins with ZO-1 as bait
Format: cell-based, rat
Conditions: stretched monolayers (25%, 6 hours), PI pretreatment
Experimental: The dose of siRNA and PI treatment was selected based on dose-response curves above (FIG. 2A-FIG. 2E). AEC-II transformed to AEC-I cells and formed a complete monolayer by day 4, expressing only AEC-I cell surface markers. On the day of the experiment, the medium was removed and replaced with HEPES-buffered MEM. Cells stretch was performed in a 37° C. incubator. The effect of ISR inhibition or control treatment was compared in the following three conditions (N=5 biological replicates/condition): 1) no stretch (NS) controls; 2) mechanical stretch with 12% surface change (S 12%); and 3) mechanical stretch with 25% surface change (S25%). The cell monolayers were exposed to the above mentioned conditions for 6 hours based on time course of ISR protein expression obtained during preliminary data collection (FIG. 2A-FIG. 2E). All membranes were treated with FITC-labeled streptavidin (Thermo Fisher Scientific) at the end of the experiment and light emission was detected at 488 nm with fluorescent microscopy (Nikon TE300, Melville, N.Y.). In a separate set of experiments (N=30 rats), in which the above mentioned treatment plan and conditions were used, cells were harvested at the end of the experiment by scraping them in RIPA buffer and total protein was extracted (N=3 membranes/treatment group performed for N=5 biological replicates per condition). […]

Cn1cc(-c2ccc3c(c2)CCN3C(=O)Cc2cccc(C(F)(F)F)c2)c2c(N)ncnc21 [PI, 1-[5-(4-Amino-7-methyl-7H-pyrrolo[2,3-d]pyrimidin-5-yl)indolin-1-yl]-2-(3-trifluoromethylphenyl)ethanone]
dissociation of CLDN 4 from ZO-1: prevented | dissociation of CLDN 18 from ZO-1: prevented
